From US12655106B2 (Eikonizo Therapeutics, Inc., priority 2021, dated 2026)
pIC50: −log10 of the molar value.

Experiments:
Full length Human HDAC6 = target: T1, Full length Human HDAC6 (Homo sapiens, UniProt Q9UBN7); experiment: Caliper endpoint assay for HDAC enzymatic activity (HDAC6); assay type: biochemical; details: for pIC50: in vitro enzymatic, Caliper endpoint assay, 30 min pre-incubation, 1 μM substrate peptide; for Selectivity (6 v 8): ratio of HDAC8 IC50/HDAC6 IC50
T1 construct: Full length Human HDAC6; FLAG (C); host or cells: baculovirus expression system
T1 sequence (Q9UBN7 1-1215): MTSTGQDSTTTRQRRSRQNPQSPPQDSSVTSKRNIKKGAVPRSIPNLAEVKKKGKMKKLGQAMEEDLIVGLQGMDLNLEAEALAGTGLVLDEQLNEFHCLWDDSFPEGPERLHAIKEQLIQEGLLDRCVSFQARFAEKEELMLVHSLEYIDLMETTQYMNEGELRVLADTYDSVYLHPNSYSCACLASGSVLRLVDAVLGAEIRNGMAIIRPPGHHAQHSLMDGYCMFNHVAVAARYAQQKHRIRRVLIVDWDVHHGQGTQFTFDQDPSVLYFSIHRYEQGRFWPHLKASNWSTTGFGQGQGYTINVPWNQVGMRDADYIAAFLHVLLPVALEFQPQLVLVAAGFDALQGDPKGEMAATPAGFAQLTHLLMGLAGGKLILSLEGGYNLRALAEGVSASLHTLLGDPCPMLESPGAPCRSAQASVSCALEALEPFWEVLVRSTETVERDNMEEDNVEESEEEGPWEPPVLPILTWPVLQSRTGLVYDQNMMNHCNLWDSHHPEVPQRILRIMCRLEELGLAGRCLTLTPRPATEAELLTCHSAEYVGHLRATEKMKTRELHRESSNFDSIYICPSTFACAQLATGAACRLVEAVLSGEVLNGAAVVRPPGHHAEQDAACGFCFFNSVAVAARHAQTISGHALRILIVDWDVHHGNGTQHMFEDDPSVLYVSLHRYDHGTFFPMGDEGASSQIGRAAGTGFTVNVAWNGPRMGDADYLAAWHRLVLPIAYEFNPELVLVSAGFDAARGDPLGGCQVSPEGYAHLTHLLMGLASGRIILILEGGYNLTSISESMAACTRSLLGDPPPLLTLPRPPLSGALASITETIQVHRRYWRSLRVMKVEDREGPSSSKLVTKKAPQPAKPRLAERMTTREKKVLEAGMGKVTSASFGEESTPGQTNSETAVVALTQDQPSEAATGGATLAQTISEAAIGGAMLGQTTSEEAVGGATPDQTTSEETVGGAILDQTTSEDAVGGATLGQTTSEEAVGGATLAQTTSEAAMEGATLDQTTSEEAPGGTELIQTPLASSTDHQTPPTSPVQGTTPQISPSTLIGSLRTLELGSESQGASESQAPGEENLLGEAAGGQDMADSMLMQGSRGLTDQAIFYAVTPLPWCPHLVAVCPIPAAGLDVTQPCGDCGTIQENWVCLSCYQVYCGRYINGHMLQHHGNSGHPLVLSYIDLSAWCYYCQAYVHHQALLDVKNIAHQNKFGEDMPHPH

Full length Human HDAC8 = target: T2, Full length Human HDAC8 (Homo sapiens, UniProt Q9BY41); experiment: Caliper endpoint assay for HDAC enzymatic activity (HDAC8); assay type: biochemical; details: in vitro enzymatic, 30 min pre-incubation, 1 μM substrate peptide
T2 construct: Full length Human HDAC8; HIS (N); host or cells: baculovirus expression system
T2 sequence (Q9BY41 1-377): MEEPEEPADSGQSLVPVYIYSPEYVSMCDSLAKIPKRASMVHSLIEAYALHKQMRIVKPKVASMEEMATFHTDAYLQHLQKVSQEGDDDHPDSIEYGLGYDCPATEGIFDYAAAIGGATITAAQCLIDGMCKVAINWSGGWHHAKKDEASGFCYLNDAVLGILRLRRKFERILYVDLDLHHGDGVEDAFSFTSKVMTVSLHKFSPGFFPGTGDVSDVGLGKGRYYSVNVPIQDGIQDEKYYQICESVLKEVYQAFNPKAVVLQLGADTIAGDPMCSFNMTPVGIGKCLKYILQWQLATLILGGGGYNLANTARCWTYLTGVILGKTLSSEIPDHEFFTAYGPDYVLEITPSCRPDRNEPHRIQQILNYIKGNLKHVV

| Structure (SMILES) | pIC50 (Full length Human HDAC6) | Selectivity (6 v 8) (Full length Human HDAC6) | pIC50 (Full length Human HDAC8) |
| --- | --- | --- | --- |
| CN1CC[C@@]2(CC[C@@H](N3CCc4cc(C(=O)NO)cc(F)c4C3)C2)C1 (single isomer, unassigned) [Compound 404] | 7.00 to 9.00 | IV (IV: >100-1000) | 4.00 to 5.00 |
| CC[C@H]1Cc2c(F)cc(C(=O)NO)cc2CN1C[C@H]1CCCCO1 (single isomer, unassigned) [Compound 231] | 7.00 to 9.00 | IV (IV: >100-1000) | 5.00 to 6.00 |
| CC[C@@H]1Cc2c(F)cc(C(=O)NO)cc2CN1C1CC2(CCN(C(C)=O)CC2)C1 (single isomer, unassigned) [Compound 602] | 6.00 to 7.00 | III (III: >10-100) | 4.00 to 5.00 |
| C[C@H]1C[C@@H]2c3c(F)cc(C(=O)NO)cc3CCN2C1 (single isomer, unassigned) [Compound 153] | 6.00 to 7.00 |  | 5.00 to 6.00 |
| O=C(NO)c1cc(F)c2c(c1)CCN(C[C@@]13CN[C@@H](CO1)C3)C2 [Compound 472, 8-fluoro-2-[[(1R,4R)-2-oxa-5-azabicyclo[2.2.1]heptan-1-yl]methyl]-3,4-dihydro-1H-isoquinoline-6-carbohydroxamic acid] | 7.00 to 9.00 | IV (IV: >100-1000) | 5.00 to 6.00 |
| CC[C@H]1Cc2c(F)cc(C(=O)NO)cc2CN1CC1CCCCC1 (single isomer, unassigned) [Compound 518] | 7.00 to 9.00 | IV (IV: >100-1000) | 5.00 to 6.00 |
| O=C(NO)c1cc(F)c2c(c1)CCN(C[C@@H]1CCC3(CCCCC3)C1)C2 (single isomer, unassigned) [Compound 107] | 7.00 to 9.00 |  | 4.00 to 5.00 |
| O=C(NO)c1cc(F)c2c(c1)CCN(C1CCC3(CCNCC3)C1)C2 (stereo not drawn) [Compound 416, 8-fluoro-N-hydroxy-2-(8-azaspiro[4.5]decan-2-yl)-1,2,3,4-tetrahydroisoquinoline-6-carboxamide] | 7.00 to 9.00 | IV (IV: >100-1000) | 4.00 to 5.00 |
| O=C(NO)c1cc(F)c2c(c1)CCN([C@H]1CCN(C3CC3)C3(CCC3)C1)C2 (single isomer, unassigned) [Compound 439] | 7.00 to 9.00 | IV (IV: >100-1000) | 4.00 to 5.00 |
| C[C@H]1C[C@H]2c3c(F)cc(C(=O)NO)cc3CCN2C1 (single isomer, unassigned) [Compound 154] | 6.00 to 7.00 |  | 5.00 to 6.00 |
| O=C(NO)c1cc(F)c2c(c1)CCN([C@H]1CCC3(CCC3)C1)C2 (single isomer, unassigned) [Compound 383] | 7.00 to 9.00 | V (V: >1000) | 4.00 to 5.00 |
| O=C(NO)c1cc(F)c2c(c1)CCN(C1CCC3(CCN(C4CC4)CC3)C1)C2 (stereo not drawn) [Compound 418, N-2-(8-cyclopropyl-8-azaspiro[4.5]decan-2-yl)-8-fluoro-N-hydroxy-1,2,3,4-tetrahydroisoquinoline-6-carboxamide] | 7.00 to 9.00 | IV (IV: >100-1000) | 5.00 to 6.00 |
| CC[C@H]1Cc2c(F)cc(C(=O)NO)cc2CN1C[C@@H]1C[C@H]2CC[C@@H](C1)N2C (single isomer, unassigned) [Compound 573] | 7.00 to 9.00 | IV (IV: >100-1000) | 5.00 to 6.00 |
| O=C(NO)c1cc(F)c2c(c1)CCN(C1CC3(CCCC3)C1)C2 [Compound 183, 8-fluoro-N-hydroxy-2-(spiro[3.4]octan-2-yl)-1,2,3,4-tetrahydroisoquinoline-6-carboxamide] | 7.00 to 9.00 | V (V: >1000) | < 4.00 |
| CC[C@@H]1Cc2c(F)cc(C(=O)NO)cc2CN1CC1C2CC1CN(C)C2 (single isomer, unassigned) [Compound 530] | 6.00 to 7.00 | III (III: >10-100) | 4.00 to 5.00 |
